Results on five compounds are retold here after US5266571A, “Treatment of hemorrhoids with 5-HT2 antagonists” (priority 1992, dated 1993).

Where a name gives a salt, the structure may show the parent alone. Read-outs that look alike come from different tables or passages of the source.

The test system of test [1] is 5-HT2 receptor. Conditions: background statement; cited from earlier work.
Test [2] deals with 5-HT2 receptor. The settings on record: background statement; cited from earlier work. The source holds these as a separate data set.
Another test deals with Alpha-receptor. Put plainly: Receptor Blocking Profile, Alpha-receptor. Conditions: read-out: Receptor Blocking Profile IC-50, Alpha-receptor. The test is classed as binding. The protocol:
(§1) The IC- 50 is the concentration that inhibits agonist binding to the
(§2) receptor by 50%. The better the blocker a compound is, the smaller is the
(§3) concentration thereof needed to block the receptor, i.e., the smaller the
(§4) IC-50, the better receptor blocker or antagonist the compound is.
(§5) The receptor blocking profile is determined as follows: Labeled 5-HT is mixed with a purified preparation containing the receptor. The amount of labeled material that attaches itself to the receptor and cannot be washed off is calculated. In a series of other similar tubes, the same quantity of labeled 5-HT is mixed with increasing concentrations of the antagonist which will antagonize the binding of 5-HT to the receptor. Decreasing quantities of the labeled material will bind to the receptor. The concentration of the antagonist that inhibits the binding by 50% is then calculated.

For another test, the system named is human colon veins. Put plainly: Activity against 5-HT on the human colon in vitro (contraction of human colonic vein rings). Conditions: for blocking contractile effects of 5-HT on human colon rings, correlation with receptor blocking potencies: human colon rings in vitro, compared with the receptors tested; for IC50: read-out: IC-50, activity against 5-HT on the human colon in vitro.

A further test has as its target 5-HT2 (Homo sapiens, UniProt P28223). Put plainly: Receptor Blocking Profile: inhibition of labeled 5-HT binding, 5-HT2. The procedure:
as §5

Another test has as its target 5-HT1. The experiment in a line: Receptor Blocking Profile, 5-HT1. The format is binding. The settings on record: read-out: Receptor Blocking Profile IC-50, 5-HT1. The procedure:
as §1, §2, §3, §4, §5

Another test deals with Dopamine-2 (Homo sapiens, UniProt P14416). Put plainly: Receptor Blocking Profile, Dopamine-2. The format is binding.
Chain of Dopamine-2 (P14416 whole entry): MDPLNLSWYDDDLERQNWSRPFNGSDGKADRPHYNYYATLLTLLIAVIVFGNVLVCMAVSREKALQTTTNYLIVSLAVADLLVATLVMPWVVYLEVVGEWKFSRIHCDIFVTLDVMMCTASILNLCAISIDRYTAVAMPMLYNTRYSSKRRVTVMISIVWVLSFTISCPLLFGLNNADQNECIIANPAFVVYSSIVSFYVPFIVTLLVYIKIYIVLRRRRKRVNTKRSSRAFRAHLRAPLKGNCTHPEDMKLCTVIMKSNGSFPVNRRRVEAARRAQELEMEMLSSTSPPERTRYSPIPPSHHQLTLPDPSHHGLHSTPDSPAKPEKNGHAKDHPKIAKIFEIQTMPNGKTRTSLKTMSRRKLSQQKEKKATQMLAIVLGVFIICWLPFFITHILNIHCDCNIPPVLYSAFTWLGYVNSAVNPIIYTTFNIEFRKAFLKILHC
Where [3] appears, read: human colon vein rings, antagonist pre-added, 5-HT-induced contraction.
The mark [4] stands for this setting: read-out: Receptor Blocking Profile IC-50, Dopamine-2.

Chain of 5-HT2 (P28223 whole entry, species assumed): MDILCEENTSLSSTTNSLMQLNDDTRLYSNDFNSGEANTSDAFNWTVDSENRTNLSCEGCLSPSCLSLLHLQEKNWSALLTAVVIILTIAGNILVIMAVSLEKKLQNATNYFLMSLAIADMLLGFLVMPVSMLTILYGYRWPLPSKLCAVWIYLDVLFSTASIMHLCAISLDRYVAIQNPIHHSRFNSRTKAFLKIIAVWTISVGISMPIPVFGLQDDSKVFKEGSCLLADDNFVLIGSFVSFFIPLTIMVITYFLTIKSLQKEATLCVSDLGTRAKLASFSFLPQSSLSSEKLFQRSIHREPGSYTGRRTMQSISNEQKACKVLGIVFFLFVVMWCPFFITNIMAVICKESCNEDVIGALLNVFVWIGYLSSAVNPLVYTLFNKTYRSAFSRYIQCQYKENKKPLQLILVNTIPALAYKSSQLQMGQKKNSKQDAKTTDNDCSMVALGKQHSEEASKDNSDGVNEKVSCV
Description for human colon veins: Human colonic vein rings were isolated from discarded human colon tissue following surgery (colostomy). The rings were prepared immediately after surgery and were suspended in buffered physiological saline. The contractions produced by the rings in response to the addition of 5-HT in vitro were measured. The effects of three selected 5-HT2 antagonist compounds on antagonizing 5-HT contractile effects were also determined.
This activity is determined as follows: Rings of human colon veins are prepared and hung in a tissue bath. The contractions of the rings are monitored. Adding 5-HT causes the rings to contract. Pre-addition of increasing concentrations of the antagonist result in lesser contractions. The amount of antagonist causing a 50% inhibition of the contractions is then calculated.

Regarding `O=C(c1ccc(F)cc1)C1CCN(CCn2c(=O)[nH]c3ccccc3c2=O)CC1` [ketanserin], in the test on 5-HT2 receptor [1], the “inhibition of modulation of phosphatidylinositol turnover by 5-HT2 receptor” value is listed as “inhibited”. Also, the “antagonism of binding of 5-HT to 5-HT2 receptor” value in the test on 5-HT2 receptor [2] is listed as “antagonized”.

For `CN1CCCCC1CCc1ccccc1NC(=O)C=Cc1ccccc1.Cl` (centres unmarked) [Compound I, 2'[2-(1-methyl-2-piperidyl)ethyl] cinnamanilide hydrochloride], the IC50 at Alpha-receptor was over 1000 nM; in the test with human colon veins (setting [3]), 2 nM; at 5-HT2, 3.4 nM; at 5-HT1, 22000 nM; at Dopamine-2 (setting [4]), over 1000 nM. In the test with human colon veins, the “blocking contractile effects of 5-HT on human colon rings, correlation with receptor blocking potencies” value (“blocking contractile effects of 5-HT” for short) was “correlated best with their 5-HT2 blocking potencies”.

Regarding `CN1C[C@@H](NS(=O)(=O)N(C)C)C[C@@H]2c3cccc4c3c(cn4C)C[C@H]21` [mesulergine], the “antagonism of binding of 5-HT to 5-HT2 receptor” value in the test with 5-HT2 receptor [2] is on record as “antagonized”.

With `O=C1CC2(CCCC2)CC(=O)N1CCCCN1CCN(c2nsc3ccccc23)CC1` [Compound III, 8-[4-[4-(1,2-benzisotriazol-3-yl)-1-piperazinyl]butyl]-8-azaspiro[4,5]decane-7,9-dione hydrochloride], the IC50 on Alpha-receptor came to 47 nM; in the test with human colon veins (Homo sapiens) it was 1 nM; at 5-HT2 (read-out: Receptor Blocking Profile IC-50, 5-HT2, displacement of labeled 5-HT) it was 1.7 nM; at 5-HT1, 12.5 nM; at Dopamine-2 (setting [4]) it was 8.4 nM. In addition, in the test on human colon veins, the “blocking contractile effects of 5-HT” value was “correlated best with their 5-HT2 blocking potencies”.

With `CCc1nn(CCCN2CCN(c3cccc(Cl)c3)CC2)c(=O)n1CCOc1ccccc1` [Compound II, 2-[3-[4-(3-chlorophenyl)-1-piperazinyl]propyl-5-ethyl-2,4-dihydro-4-(2-phenoxyethyl)-3H-1,2,4-triazol-3-one hydrochloride], the IC50 at Alpha-receptor was 160 nM; with human colon veins (setting [3]) it was 10 nM; on 5-HT1, over 1000 nM; at Dopamine-2, over 1000 nM. In the test on human colon veins, the “blocking contractile effects of 5-HT” value is “correlated best with their 5-HT2 blocking potencies”.
